In ChEMBL document CHEMBL4507311, “Data for DCP probe A-1155463” (2021):
pKi: −log10 of the molar value.

Columns and labels:
[1] = biological target: 5-hydroxytryptamine receptor 3A (Homo sapiens, UniProt P46098); assay: GPCRScan assay: inhibition of 5-HT3; set-up: radioligand conc. used [nm] 1.0 – 2.0, parental cells HEKT
[2] = biological target: Phosphatidylinositol 4,5-bisphosphate 3-kinase catalytic subunit alpha isoform (Homo sapiens) (UniProt P42336); conditions: Compound concentration 1000.0 nM
[3] = biological target: Serine/threonine-protein kinase 38-like (Homo sapiens) (UniProt Q9Y2H1); conditions: Compound concentration 1000.0 nM
[4] = biological target: Ephrin type-B receptor 3 (Homo sapiens) (UniProt P54753); conditions: Compound concentration 1000.0 nM
[5] = biological target: Dual specificity mitogen-activated protein kinase kinase 4 (Homo sapiens) (UniProt P45985); conditions: Compound concentration 1000.0 nM
[6] = biological target: Serine/threonine-protein kinase DCLK1 (Homo sapiens) (UniProt O15075); conditions: Compound concentration 1000.0 nM
[7] = biological target: Cyclin-dependent kinase 11A (Homo sapiens) (UniProt Q9UQ88); conditions: Compound concentration 1000.0 nM
[8] = biological target: Fibroblast growth factor receptor 3 (Homo sapiens) (UniProt P22607); conditions: Compound concentration 1000.0 nM
[9] = biological target: T1, Muscarinic acetylcholine receptor M5 (Homo sapiens) (UniProt P08912); conditions: Compound concentration 10.0 uM
T1 sequence (whole entry): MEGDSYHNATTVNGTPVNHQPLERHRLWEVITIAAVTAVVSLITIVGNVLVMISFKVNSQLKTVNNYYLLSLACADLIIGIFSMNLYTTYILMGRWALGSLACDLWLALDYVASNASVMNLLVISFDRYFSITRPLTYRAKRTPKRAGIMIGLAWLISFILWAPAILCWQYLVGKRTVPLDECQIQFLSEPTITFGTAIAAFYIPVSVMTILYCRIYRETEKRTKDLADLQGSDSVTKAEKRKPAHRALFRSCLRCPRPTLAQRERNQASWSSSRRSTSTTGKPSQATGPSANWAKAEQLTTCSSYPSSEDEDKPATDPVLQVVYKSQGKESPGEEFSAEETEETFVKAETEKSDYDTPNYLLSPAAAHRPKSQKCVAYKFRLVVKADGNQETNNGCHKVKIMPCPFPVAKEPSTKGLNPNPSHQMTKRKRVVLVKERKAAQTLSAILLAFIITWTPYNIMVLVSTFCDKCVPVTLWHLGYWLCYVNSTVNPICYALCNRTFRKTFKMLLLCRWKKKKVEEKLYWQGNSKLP

[10] = biological target: Ribosomal protein S6 kinase alpha-6 (Homo sapiens) (UniProt Q9UK32); conditions: Compound concentration 1000.0 nM
[11] = biological target: Platelet-derived growth factor receptor beta (Homo sapiens) (UniProt P09619); conditions: Compound concentration 1000.0 nM
[12] = biological target: Sigma non-opioid intracellular receptor 1 (Homo sapiens, UniProt Q99720); assay: GPCRScan assay: inhibition of Sigma 1; set-up: radioligand conc. used [nm] 4.0 – 5.0, parental cells HEKT
[13] = biological target: Dual specificity mitogen-activated protein kinase kinase 1 (Homo sapiens) (UniProt Q02750); conditions: Compound concentration 1000.0 nM
[14] = system: Epidermal growth factor receptor (Homo sapiens), P00533 [L858R,T790M]; conditions: Compound concentration 1000.0 nM
[15] = biological target: Casein kinase II subunit alpha' (Homo sapiens) (UniProt P19784); conditions: Compound concentration 1000.0 nM
[16] = biological target: 5-hydroxytryptamine receptor 2A (Homo sapiens) (UniProt P28223); conditions: Compound concentration 10.0 uM
[17] = system: Proto-oncogene tyrosine-protein kinase receptor Ret (Homo sapiens), P07949 [V804L]; conditions: Compound concentration 1000.0 nM
RS4-11 = assay: CellTiter-Glo Luminescent Cell Viability Assay (BCL-2 dependent cell line RS4-11); type: functional, cell-based; conditions: Homo sapiens
[18] = biological target: Aurora kinase B (Homo sapiens) (UniProt Q96GD4); conditions: Compound concentration 1000.0 nM
[19] = biological target: Serine/threonine-protein kinase VRK2 (Homo sapiens) (UniProt Q86Y07); conditions: Compound concentration 1000.0 nM
[20] = biological target: RAF proto-oncogene serine/threonine-protein kinase (Homo sapiens) (UniProt P04049); conditions: Compound concentration 1000.0 nM
[21] = biological target: Transient receptor potential cation channel subfamily M member 6 (Homo sapiens) (UniProt Q9BX84); conditions: Compound concentration 1000.0 nM
[22] = biological target: Tyrosine-protein kinase BTK (Homo sapiens) (UniProt Q06187); conditions: Compound concentration 1000.0 nM
[23] = biological target: Focal adhesion kinase 1 (Homo sapiens) (UniProt Q05397); conditions: Compound concentration 1000.0 nM
[24] = biological target: Serine/threonine-protein kinase mTOR (Homo sapiens) (UniProt P42345); conditions: Compound concentration 1000.0 nM
[25] = biological target: T2, Alpha-1B adrenergic receptor (Homo sapiens) (UniProt P35368); conditions: Compound concentration 10.0 uM
T2 sequence (whole entry): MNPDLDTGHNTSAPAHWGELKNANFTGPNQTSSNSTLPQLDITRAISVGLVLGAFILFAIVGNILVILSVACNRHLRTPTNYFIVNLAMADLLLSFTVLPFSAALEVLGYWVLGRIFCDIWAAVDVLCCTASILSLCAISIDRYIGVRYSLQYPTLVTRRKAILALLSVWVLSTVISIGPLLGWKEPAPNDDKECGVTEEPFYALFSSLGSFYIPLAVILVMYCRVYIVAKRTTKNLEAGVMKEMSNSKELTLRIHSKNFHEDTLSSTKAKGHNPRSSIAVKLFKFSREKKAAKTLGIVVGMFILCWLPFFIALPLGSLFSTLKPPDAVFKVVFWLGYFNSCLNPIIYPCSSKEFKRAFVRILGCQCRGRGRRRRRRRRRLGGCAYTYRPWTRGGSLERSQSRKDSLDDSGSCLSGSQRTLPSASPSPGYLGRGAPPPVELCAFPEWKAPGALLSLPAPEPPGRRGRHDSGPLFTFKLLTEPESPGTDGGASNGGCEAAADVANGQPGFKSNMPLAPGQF

[26] = biological target: Aurora kinase C (Homo sapiens) (UniProt Q9UQB9); conditions: Compound concentration 1000.0 nM
[27] = biological target: Mitogen-activated protein kinase 3 (Homo sapiens) (UniProt P27361); conditions: Compound concentration 1000.0 nM
[28] = biological target: Wee1-like protein kinase (Homo sapiens) (UniProt P30291); conditions: Compound concentration 1000.0 nM
[29] = biological target: Non-receptor tyrosine-protein kinase TYK2 (Homo sapiens) (UniProt P29597); conditions: Compound concentration 1000.0 nM
[30] = biological target: Serine/threonine-protein kinase SIK2 (Homo sapiens) (UniProt Q9H0K1); conditions: Compound concentration 1000.0 nM

5-hydroxytryptamine receptor 3A, sequence (P46098 whole entry, canonical isoform): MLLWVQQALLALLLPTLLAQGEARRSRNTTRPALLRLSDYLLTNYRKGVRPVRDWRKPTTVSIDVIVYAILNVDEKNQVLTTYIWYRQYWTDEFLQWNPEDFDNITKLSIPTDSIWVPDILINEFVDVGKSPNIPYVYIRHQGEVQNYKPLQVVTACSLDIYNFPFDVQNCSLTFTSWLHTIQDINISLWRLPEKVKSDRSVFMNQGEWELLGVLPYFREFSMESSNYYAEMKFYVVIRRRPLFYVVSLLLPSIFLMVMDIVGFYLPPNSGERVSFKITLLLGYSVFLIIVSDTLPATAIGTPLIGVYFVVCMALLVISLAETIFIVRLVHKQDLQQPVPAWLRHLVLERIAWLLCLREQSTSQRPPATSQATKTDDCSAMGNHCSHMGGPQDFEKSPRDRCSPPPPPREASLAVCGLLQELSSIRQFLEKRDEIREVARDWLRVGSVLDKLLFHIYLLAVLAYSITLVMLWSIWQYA
Sigma non-opioid intracellular receptor 1, sequence (Q99720 whole entry): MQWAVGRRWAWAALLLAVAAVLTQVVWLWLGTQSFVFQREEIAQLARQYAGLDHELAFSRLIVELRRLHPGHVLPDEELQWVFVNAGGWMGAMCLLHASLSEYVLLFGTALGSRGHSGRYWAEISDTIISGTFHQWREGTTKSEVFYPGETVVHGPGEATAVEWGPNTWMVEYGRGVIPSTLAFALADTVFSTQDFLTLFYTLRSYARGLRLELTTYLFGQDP
Dual specificity mitogen-activated protein kinase kinase 4 (Homo sapiens), sequence (P45985 whole entry): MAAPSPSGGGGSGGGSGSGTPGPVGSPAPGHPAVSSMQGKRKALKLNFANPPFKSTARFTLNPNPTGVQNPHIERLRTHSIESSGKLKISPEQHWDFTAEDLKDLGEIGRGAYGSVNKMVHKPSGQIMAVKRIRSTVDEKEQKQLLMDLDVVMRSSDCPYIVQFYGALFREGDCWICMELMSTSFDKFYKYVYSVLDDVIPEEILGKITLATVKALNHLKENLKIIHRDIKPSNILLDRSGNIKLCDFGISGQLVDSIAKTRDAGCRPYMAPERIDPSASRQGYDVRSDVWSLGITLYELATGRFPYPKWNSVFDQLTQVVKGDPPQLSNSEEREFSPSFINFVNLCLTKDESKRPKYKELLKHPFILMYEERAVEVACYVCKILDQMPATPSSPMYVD
Cyclin-dependent kinase 11A (Homo sapiens), sequence (Q9UQ88 whole entry): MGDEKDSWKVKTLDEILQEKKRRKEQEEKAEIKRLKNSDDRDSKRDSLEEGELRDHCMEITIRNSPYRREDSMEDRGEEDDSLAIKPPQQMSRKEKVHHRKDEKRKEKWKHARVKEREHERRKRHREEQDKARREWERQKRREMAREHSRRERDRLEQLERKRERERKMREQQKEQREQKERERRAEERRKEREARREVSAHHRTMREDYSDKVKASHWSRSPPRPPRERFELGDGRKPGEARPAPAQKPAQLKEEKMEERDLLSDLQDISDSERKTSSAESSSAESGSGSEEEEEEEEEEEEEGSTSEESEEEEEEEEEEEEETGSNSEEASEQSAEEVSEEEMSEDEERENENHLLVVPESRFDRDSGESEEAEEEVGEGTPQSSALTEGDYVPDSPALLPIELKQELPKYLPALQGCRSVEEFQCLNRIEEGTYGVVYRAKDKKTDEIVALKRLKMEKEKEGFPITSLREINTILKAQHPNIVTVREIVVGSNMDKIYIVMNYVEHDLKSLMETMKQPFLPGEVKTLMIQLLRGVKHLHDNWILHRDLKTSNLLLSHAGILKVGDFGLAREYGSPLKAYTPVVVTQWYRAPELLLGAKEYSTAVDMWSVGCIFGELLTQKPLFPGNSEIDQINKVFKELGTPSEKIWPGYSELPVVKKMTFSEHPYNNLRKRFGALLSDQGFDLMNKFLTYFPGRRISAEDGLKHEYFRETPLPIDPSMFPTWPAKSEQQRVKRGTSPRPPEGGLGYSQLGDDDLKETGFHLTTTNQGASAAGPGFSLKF
Wee1-like protein kinase (Homo sapiens), sequence (P30291 whole entry, looked up): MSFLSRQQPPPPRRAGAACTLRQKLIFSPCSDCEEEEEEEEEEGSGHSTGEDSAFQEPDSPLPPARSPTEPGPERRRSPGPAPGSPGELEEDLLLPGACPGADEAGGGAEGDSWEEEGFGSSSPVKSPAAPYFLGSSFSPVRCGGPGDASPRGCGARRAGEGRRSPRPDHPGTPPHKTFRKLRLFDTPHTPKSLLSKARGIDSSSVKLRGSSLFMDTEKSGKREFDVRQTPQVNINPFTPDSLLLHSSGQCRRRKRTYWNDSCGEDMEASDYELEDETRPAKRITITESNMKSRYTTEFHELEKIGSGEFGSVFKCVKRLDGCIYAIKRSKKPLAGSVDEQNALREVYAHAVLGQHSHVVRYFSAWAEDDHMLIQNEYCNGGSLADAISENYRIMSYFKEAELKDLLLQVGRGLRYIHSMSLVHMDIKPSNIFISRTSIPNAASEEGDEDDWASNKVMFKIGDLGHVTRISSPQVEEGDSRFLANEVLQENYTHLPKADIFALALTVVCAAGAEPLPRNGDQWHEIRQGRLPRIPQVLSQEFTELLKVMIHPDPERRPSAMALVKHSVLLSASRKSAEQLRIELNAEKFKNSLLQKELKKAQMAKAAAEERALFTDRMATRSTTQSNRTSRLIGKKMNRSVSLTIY
Mitogen-activated protein kinase 3 (Homo sapiens), sequence (P27361 whole entry): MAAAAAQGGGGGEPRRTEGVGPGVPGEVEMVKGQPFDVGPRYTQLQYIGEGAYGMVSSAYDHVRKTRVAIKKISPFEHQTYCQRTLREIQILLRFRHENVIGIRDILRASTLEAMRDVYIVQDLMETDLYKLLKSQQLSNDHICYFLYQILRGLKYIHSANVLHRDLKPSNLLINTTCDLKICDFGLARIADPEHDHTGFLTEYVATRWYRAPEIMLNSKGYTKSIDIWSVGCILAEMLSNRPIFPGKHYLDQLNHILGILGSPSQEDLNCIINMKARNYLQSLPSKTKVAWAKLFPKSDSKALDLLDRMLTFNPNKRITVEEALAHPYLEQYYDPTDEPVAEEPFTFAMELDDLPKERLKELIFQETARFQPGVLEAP
RAF proto-oncogene serine/threonine-protein kinase (Homo sapiens), sequence (P04049 whole entry): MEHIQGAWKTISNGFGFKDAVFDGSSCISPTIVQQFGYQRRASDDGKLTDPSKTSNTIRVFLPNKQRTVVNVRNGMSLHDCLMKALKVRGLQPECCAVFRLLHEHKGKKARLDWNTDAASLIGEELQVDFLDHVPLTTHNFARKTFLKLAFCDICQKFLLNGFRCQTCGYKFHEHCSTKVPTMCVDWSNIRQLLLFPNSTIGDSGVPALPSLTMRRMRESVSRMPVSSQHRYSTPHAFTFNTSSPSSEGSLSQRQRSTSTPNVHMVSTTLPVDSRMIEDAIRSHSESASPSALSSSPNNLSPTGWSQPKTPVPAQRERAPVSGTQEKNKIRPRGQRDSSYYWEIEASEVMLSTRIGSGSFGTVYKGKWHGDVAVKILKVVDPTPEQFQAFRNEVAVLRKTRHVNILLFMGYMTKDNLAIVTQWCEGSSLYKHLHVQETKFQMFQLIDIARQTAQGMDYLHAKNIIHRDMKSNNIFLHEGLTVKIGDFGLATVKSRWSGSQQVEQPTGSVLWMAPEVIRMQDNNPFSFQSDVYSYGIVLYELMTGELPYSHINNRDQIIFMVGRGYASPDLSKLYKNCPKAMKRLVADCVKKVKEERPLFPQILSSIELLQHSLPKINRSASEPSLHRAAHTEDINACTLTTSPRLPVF
Serine/threonine-protein kinase DCLK1 (Homo sapiens), sequence (O15075 whole entry): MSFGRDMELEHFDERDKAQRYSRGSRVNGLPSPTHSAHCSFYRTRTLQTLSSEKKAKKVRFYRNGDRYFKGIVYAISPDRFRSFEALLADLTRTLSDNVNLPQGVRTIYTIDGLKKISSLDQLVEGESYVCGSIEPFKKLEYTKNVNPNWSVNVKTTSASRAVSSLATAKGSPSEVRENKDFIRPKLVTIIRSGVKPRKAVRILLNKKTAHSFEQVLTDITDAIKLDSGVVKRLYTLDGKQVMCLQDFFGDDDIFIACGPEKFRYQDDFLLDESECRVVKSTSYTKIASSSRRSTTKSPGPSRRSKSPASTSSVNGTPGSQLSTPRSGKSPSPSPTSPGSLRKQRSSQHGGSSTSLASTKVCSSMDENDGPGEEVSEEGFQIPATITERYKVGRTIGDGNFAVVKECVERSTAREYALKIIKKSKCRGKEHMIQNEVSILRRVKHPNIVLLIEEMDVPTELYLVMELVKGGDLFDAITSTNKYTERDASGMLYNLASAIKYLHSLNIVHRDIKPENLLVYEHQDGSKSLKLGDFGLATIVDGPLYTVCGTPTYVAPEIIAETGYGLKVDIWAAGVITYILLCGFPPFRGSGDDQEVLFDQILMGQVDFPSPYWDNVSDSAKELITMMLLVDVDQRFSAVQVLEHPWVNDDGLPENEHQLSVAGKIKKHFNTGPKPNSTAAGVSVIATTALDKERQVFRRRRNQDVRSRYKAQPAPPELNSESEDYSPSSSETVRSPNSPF
5-hydroxytryptamine receptor 2A (Homo sapiens), sequence (P28223 whole entry): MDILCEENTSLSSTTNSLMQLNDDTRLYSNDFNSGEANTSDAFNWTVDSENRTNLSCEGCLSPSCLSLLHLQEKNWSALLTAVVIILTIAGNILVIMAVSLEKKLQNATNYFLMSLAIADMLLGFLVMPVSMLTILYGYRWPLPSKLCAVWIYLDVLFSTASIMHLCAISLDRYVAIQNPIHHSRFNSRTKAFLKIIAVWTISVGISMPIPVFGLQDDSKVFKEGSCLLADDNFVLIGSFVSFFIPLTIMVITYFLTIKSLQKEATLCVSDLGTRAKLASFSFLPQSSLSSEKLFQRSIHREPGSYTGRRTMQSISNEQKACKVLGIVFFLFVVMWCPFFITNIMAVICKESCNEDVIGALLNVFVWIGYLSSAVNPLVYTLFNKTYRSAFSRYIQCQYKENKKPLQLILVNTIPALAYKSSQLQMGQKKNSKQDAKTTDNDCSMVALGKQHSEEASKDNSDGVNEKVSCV

`CN(C)CC#Cc1ccc(OCCCc2sc(N3CCc4cccc(C(=O)Nc5nc6ccccc6s5)c4C3)nc2C(=O)O)c(F)c1` [A-1155463] showed a pKi ([1]; read-out: Ki) of 5.94, a Ki ([1]; read-out: pKi (converted)) of 1070 nM and a residual activity [2] of 89%. It also gave a residual activity [3] of 83%, a residual activity [4] of 100% and a residual activity [5] of 100%. The residual activity [6] was 72%, the residual activity [7] was 100% and the residual activity [8] was 98%. The inhibition [9] was 12.6%, the residual activity [10] was 90% and the residual activity [11] was 94%. The pKi [12] was 6.87, the residual activity [13] was 100% and the residual activity [14] was 100%. The residual activity [15] was 100%, the inhibition [16] was 40.1% and the residual activity [17] was 100%. For the same compound, the EC50 (RS4-11) was > 10000 nM (not active), the residual activity [18] was 79% and the residual activity [19] was 100%. For the same compound, the residual activity [20] was 97%, the residual activity [21] was 84% and the residual activity [22] was 96%. It also gave a residual activity [23] of 100%, a residual activity [24] of 100% and an inhibition [25] of 0.97%. For the same compound, the residual activity [26] was 9%, the residual activity [27] was 96% and the residual activity [28] was 100%. The residual activity [29] was 85% and the residual activity [30] was 96%.
